Source: ChEMBL document CHEMBL1123738, “Kinetics of solvolysis and muscarinic actions of an N-methyl-N-(2-bromoethyl)amino analogue of oxotremorine” (J Med Chem, 1987)

How the values were obtained:
[1] = Half-life of compound at 22 degree Celsius and pH 4.24 was determined; assay type: ADME
[2] = Rate of cyclization of compound at 22 degree Celsius and pH 7.29; assay type: ADME
[3] = Rate of cyclization of compound at 22 degree Celsius and pH 5.46; assay type: ADME
[4] = Rate of cyclization of compound at 22 degree Celsius and pH 7.67; assay type: ADME
[5] = Half-life of compound at 22 degree Celsius and pH 5.46 was determined; assay type: ADME
[6] = First-order rate constant for cyclization of the free base; assay type: ADME
[7] = Half-life of compound at 22 degree Celsius and pH 6.25 was determined; assay type: ADME
[8] = Equipotent potent ratio relative to carbachol (nicotinic activity); assay type: ADME
[9] = Rate of cyclization of compound at 22 degree Celsius and pH 4.24; assay type: ADME
[10] = pKa value of compound was determined; assay type: physicochemical
[11] = Half-life of compound at 22 degree Celsius and pH 7.29 was determined; assay type: ADME
[12] = Apparent first-order rate constant for bromide ion release at 37 degree Celsius and pH 7.3; assay type: ADME
[13] = Half-life of compound at 22 degree Centigrade and pH 7.67 was determined; assay type: ADME
[14] = Rate of cyclization of compound at 22 degree Centigrade and pH 6.25; assay type: ADME
[15] = Rate of hydrolysis of compound at pH 7.3 and 22 degree Centigrade; assay type: ADME; settings: buffer
[16] = Rate of hydrolysis of compound at pH 7.3 and 37 degree Centigrade; assay type: ADME; settings: buffer
[17] = Rate of cyclization, as measured by rate of formation of compound at 22 degree Centigrade; assay type: ADME
[18] = Rate of cyclization, as measured by rate of formation of compound at 37 degree Centigrade; assay type: ADME

SMILES: CN(CC#CCN1CCCC1=O)CCBr
- half-life [1]: 261 min
- k1 [2]: 0.1406 min⁻¹
- k1 [3]: 0.0678 min⁻¹
- k1 [4]: 0.1512 min⁻¹
- half-life [5]: 10.2 min
- k0 [6]: 0.146 min⁻¹
- half-life [7]: 6.1 min
- Molar ratio [8]: 12.3
- k1 [9]: 0.00266 min⁻¹
- pKa [10]: 5.6
- half-life [11]: 4.9 min
- Rate constant [12]: 0.85 min⁻¹
- half-life [13]: 4.6 min
- k1 [14]: 0.1146 min⁻¹

SMILES: C[N+]1(CC#CCN2CCCC2=O)CC1.[Br-]
- k2 [15]: 0.00829 min⁻¹
- k2 [16]: 0.0395 min⁻¹
- k1 [17]: 0.145 min⁻¹
- k1 [18]: 0.845 min⁻¹
